Source: the NIST ThermoML archive (doi:10.1016/j.tca.2019.178383)

Experiment: xn = mol fraction of the nth substance listed
Conditions: for surface tension liquid-gas: Maximal bubble pressure; for mass density: 100 kPa, Liquid, Vibrating tube method

CCn1cc[n+](CCOC)c1.O=S(=O)([O-])C(F)(F)F + CCCO
Conditions | mass density [kg/m3] | surface tension liquid-gas [mN/m]
288.15 K, x1 = 0.0987 | 944.376 | 23.4
288.15 K, x1 = 0.1999 | 1043.54 | 24.2
288.15 K, x1 = 0.2982 | 1114.64 | 25
288.15 K, x1 = 0.3994 | 1171.5 | 26.2
288.15 K, x1 = 0.499 | 1215.82 | 27.7
288.15 K, x1 = 0.5993 | 1252.38 | 29.5
288.15 K, x1 = 0.6979 | 1282.09 | 31.5
288.15 K, x1 = 0.8009 | 1308.48 | 33
288.15 K, x1 = 0.8992 | 1329.95 | 34.8
288.15 K, x1 = 1 | 1348.94 | 36.3
293.15 K, x1 = 0.0987 | 940.25 | 23.1
293.15 K, x1 = 0.1999 | 1039.33 | 23.8
293.15 K, x1 = 0.2982 | 1110.4 | 24.7
293.15 K, x1 = 0.3994 | 1167.24 | 25.9
293.15 K, x1 = 0.499 | 1211.56 | 27.4
293.15 K, x1 = 0.5993 | 1248.12 | 29.2
293.15 K, x1 = 0.6979 | 1277.83 | 31.3
293.15 K, x1 = 0.8009 | 1304.21 | 32.7
293.15 K, x1 = 0.8992 | 1325.68 | 34.6
293.15 K, x1 = 1 | 1344.66 | 36.1
298.15 K, x1 = 0.0987 | 936.122 | 22.7
298.15 K, x1 = 0.1999 | 1035.12 | 23.5
298.15 K, x1 = 0.2982 | 1106.16 | 24.3
298.15 K, x1 = 0.3994 | 1162.99 | 25.5
298.15 K, x1 = 0.499 | 1207.32 | 27.1
298.15 K, x1 = 0.5993 | 1243.87 | 28.9
298.15 K, x1 = 0.6979 | 1273.58 | 31
298.15 K, x1 = 0.8009 | 1299.97 | 32.5
298.15 K, x1 = 0.8992 | 1321.43 | 34.4
298.15 K, x1 = 1 | 1340.41 | 35.8
303.15 K, x1 = 0.0987 | 931.974 | 22.4
303.15 K, x1 = 0.1999 | 1030.91 | 23.1
303.15 K, x1 = 0.2982 | 1101.93 | 24
303.15 K, x1 = 0.3994 | 1158.75 | 25.1
303.15 K, x1 = 0.499 | 1203.08 | 26.7
303.15 K, x1 = 0.5993 | 1239.64 | 28.6
303.15 K, x1 = 0.6979 | 1269.36 | 30.7
303.15 K, x1 = 0.8009 | 1295.75 | 32.2
303.15 K, x1 = 0.8992 | 1317.21 | 34.2
303.15 K, x1 = 1 | 1336.17 | 35.5
308.15 K, x1 = 0.0987 | 927.821 | 22.1
308.15 K, x1 = 0.1999 | 1026.69 | 22.7
308.15 K, x1 = 0.2982 | 1097.7 | 23.6
308.15 K, x1 = 0.3994 | 1154.52 | 24.8
308.15 K, x1 = 0.499 | 1198.86 | 26.4
308.15 K, x1 = 0.5993 | 1235.43 | 28.3
308.15 K, x1 = 0.6979 | 1265.15 | 30.4
308.15 K, x1 = 0.8009 | 1291.54 | 32
308.15 K, x1 = 0.8992 | 1313 | 33.9
308.15 K, x1 = 1 | 1331.96 | 35.3
313.15 K, x1 = 0.0987 | 923.647 | 21.7
313.15 K, x1 = 0.1999 | 1022.48 | 22.4
313.15 K, x1 = 0.2982 | 1093.47 | 23.2
313.15 K, x1 = 0.3994 | 1150.29 | 24.5
313.15 K, x1 = 0.499 | 1194.66 | 26.1
313.15 K, x1 = 0.5993 | 1231.23 | 28
313.15 K, x1 = 0.6979 | 1260.96 | 30
313.15 K, x1 = 0.8009 | 1287.35 | 31.7
313.15 K, x1 = 0.8992 | 1308.81 | 33.7
313.15 K, x1 = 1 | 1327.77 | 35.1
318.15 K, x1 = 0.0987 | 919.45 | 21.3
318.15 K, x1 = 0.1999 | 1018.44 | 22.1
318.15 K, x1 = 0.2982 | 1089.25 | 22.8
318.15 K, x1 = 0.3994 | 1146.1 | 24.2
318.15 K, x1 = 0.499 | 1190.46 | 25.8
318.15 K, x1 = 0.5993 | 1227.04 | 27.8
318.15 K, x1 = 0.6979 | 1256.78 | 29.7
318.15 K, x1 = 0.8009 | 1283.18 | 31.4
318.15 K, x1 = 0.8992 | 1304.63 | 33.5
318.15 K, x1 = 1 | 1323.6 | 34.9
